Tests used:
[1] = set-up: species or system human; conditions: in vivo
Protocol: A phase 1, open-label, repeat-dose, two-way, single-sequence study was conducted to evaluate the effect of Compound 1, or a pharmaceutically acceptable salt, hydrate, or solvate thereof, (“Study Drug”) on the pharmacokinetics and pharmacodynamics of a monophasic oral contraceptive (OC) in healthy premenopausal female subjects.
The primary objective of the study was to evaluate the pharmacokinetics (PK) of a monophasic OC (30 μg ethinylestradiol [EE] and 150 μg levonorgestrel [LVG]) alone and when co-administered with repeated doses of Study Drug in healthy premenopausal female subjects.
All subjects received monophasic OC once daily (qd) for 21 days (Days 1 to 21; reference treatment) followed by a 7-day OC dose-free period (Days 22 to 28). […]
Blood samples for plasma PK evaluation of EE, LVG, and Study Drug were collected. The following PK parameters were determined for EE, LVG, and/or Study Drug and, if warranted, metabolites thereof. • Cmax,ss maximum plasma concentration at steady-state • Cmin,ss plasma concentration at 24-hours postdose at steady-state • Tmax,ss time to Cmax at steady-state • AUCtau,ss area under the plasma concentration-time curve (AUC) during the dosing interval (tau) at steady-state • CLSS/F Apparent plasma clearance of drug after extravascular administration at steady-state

ovarian activity = test: Phase 1 study: PD markers of ovarian activity (FSH, LH, estradiol, progesterone, SHBG, TVUS/Hoogland score); type: in vivo, human; conditions: Study Drug 2 mg qd with OC
Excerpt: (§1) Secondary objectives of the study were: • To assess the concentrations of follicle stimulating hormone (FSH), luteinizing hormone (LH), estradiol, and progesterone during and after dosing with the monophasic OC alone and when co-administered with Study Drug in healthy premenopausal female subjects. • To evaluate transvaginal ultrasound (TVUS) and Hoogland scores on Days 1 and 11±1 in Period 1 and Period 2 in healthy premenopausal female subjects. • To evaluate sex hormone binding globulin (SHBG) concentrations on Days 1 and 21 in Period 1 and Period 2 in healthy premenopausal female subjects. • To evaluate the steady-state PK of Study Drug when co-administered with the monophasic OC in healthy premenopausal female subjects. • To assess complete blood count (CBC) including differential, absolute lymphocyte count lowering from baseline, and platelet count upon administration of monophasic OC alone and when co-administered with Study Drug in healthy premenopausal female subjects. • To evaluate the safety and tolerability of Study Drug when co-administered with the monophasic OC in healthy premenopausal female subjects.
On Day 1, baseline CBC, FSH, LH, estradiol, progesterone, TVUS, and SHBG were obtained, and then subjects received OC dosing. The TVUS were performed on Day −1 or Day 1. The OC PK was done on Days 21 to 22. […]

[2] = Phase 1 study: steady-state PK of Study Drug co-administered with OC; type: in vivo, human; conditions: Day 49, Period 2, Study Drug 2 mg qd + OC; compared with Study Drug given alone in previous studies
Excerpt: as §1
All subjects were co-administered Study Drug 2 mg qd with OC for 21 days (Days 29 to 49; test treatment), followed by a 7-day dose-free period (Days 50 to 56). On Days 49 to 50, subjects underwent assessments for PK of Study Drug and OC. […]

lymphocyte counts = test: Phase 1 study: lymphocyte counts (CBC); type: in vivo, human
Excerpt: as §1
Subjects were administered 2 mg Study Drug, specifically, the L-arginine salt of Compound 1, i.e., Compound 2, qd on Days 23 to 28. […]

[3] = Phase 1 study: safety and tolerability (AEs, 12-lead ECG, Holter, laboratory, vital signs); type: in vivo, human
Protocol: Subjects were administered 2 mg Study Drug, specifically, the L-arginine salt of Compound 1, i.e., Compound 2, qd on Days 23 to 28. Subjects were fitted with a Holter monitor and 24-hour continuous electrocardiogram (ECG) recording was performed starting before the Study Drug dose on Day 23 of Period 1 until Day 24 of Period 1.
All subjects were co-administered Study Drug 2 mg qd with OC for 21 days (Days 29 to 49; test treatment), followed by a 7-day dose-free period (Days 50 to 56). On Days 49 to 50, subjects underwent assessments for PK of Study Drug and OC. Further PD assessments and safety evaluations were performed as described in the schedules of assessments and procedures. Subjects were fitted with a Holter monitor and 24-hour continuous ECG recording was performed starting before the Study Drug dose on Day 49 of Period 2 until Day 50 of Period 2.
Subject safety and tolerability were monitored during the study using standard measures, including adverse event (AE) monitoring, orthostatic vital signs, 12-lead ECGs, continuous ECG recordings (Holter), clinical laboratory evaluations, physical examinations, and concomitant medication usage.
• Evaluations of AEs, orthostatic vital signs, 12-lead ECGs, continuous ECG recording (Holter), clinical laboratory evaluations, physical examinations, concomitant medications

[4] = cited from earlier work
[5] = after the first dose (Day 23), 2 mg
[6] = repeat dosing at steady-state (Day 49), 2 mg qd

**Q.** With `C#C[C@]1(O)CC[C@H]2[C@@H]3CCc4cc(O)ccc4[C@H]3CC[C@@]21C` [Ethinylestradiol (EE), ethinylestradiol] as the compound, how does the “change in peak (Cmax,ss) and total (AUCtau,ss) exposure measures when OC coadministered with ETR vs OC alone” value [1] read?
**A.** minor-to-moderate increases

**Q.** Which “change in peak (Cmax,ss) and total (AUCtau,ss) exposure measures when OC coadministered with ETR vs OC alone” value [1] does the source give for `C#C[C@]1(O)CC[C@H]2[C@@H]3CCC4=CC(=O)CC[C@@H]4[C@H]3CC[C@@]21CC` [Levonorgestrel (LVG), levonorgestrel] here?
**A.** minor-to-moderate increases

**Q.** With `N=C(N)NCCC[C@H](N)C(=O)O.O=C(O)C[C@H]1CCc2c1[nH]c1ccc(OCc3ccc(C4CCCC4)c(C(F)(F)F)c3)cc21` [Compound 2, 1:1 salt of (R)-2-(7-(4-cyclopentyl-3-(trifluoromethyl)benzyloxy)-1,2,3,4-tetrahydrocyclopenta[b]indol-3-yl)acetic acid with L-arginine] as the compound, how does the “impact of Study Drug on PD performance of the OC (FSH, LH, estradiol, progesterone, SHBG, TVUS/Hoogland score)” value (ovarian activity) read?
**A.** no apparent clinically relevant impact

**Q.** And the “Study Drug steady-state plasma exposure measures (Cmax,ss, Cmin,ss, AUCtau,ss)” value [2]?
**A.** generally consistent with previous study findings

**Q.** And the “mean lymphocyte counts relative to mean baseline (Day 23) after discontinuation” value (lymphocyte counts; Day 56, 7 days after discontinuation of study treatment)?
**A.** 94%

**Q.** And the “mean lymphocyte count reduction from mean baseline (Day 23)” value (lymphocyte counts; Period 2, Study Drug 2 mg qd + OC, Day 49)?
**A.** −56.7%

**Q.** What about the “clinically significant abnormalities of 12-lead ECG parameters including PR interval and QT interval” value ([3]; Days 23 or 49) of the same compound?
**A.** No subject had an ECG with clinically significant abnormalities

**Q.** And the “HR lowering effects, continuous Holter ECG recording” value [3, 5]?
**A.** typically mild

**Q.** What about the “HR lowering effects, safety 12-lead ECG” value [3, 5] of the same compound?
**A.** typically mild

**Q.** What about the “safety or tolerability events of concern” value ([3]; conclusion, coadministration with OC) of the same compound?
**A.** No safety or tolerability events of concern

**Q.** And the “HR lowering effects, continuous Holter ECG recording” value [3, 6]?
**A.** less impacted

**Q.** And the “HR lowering effects, safety 12-lead ECG” value [3, 6]?
**A.** less impacted

**Q.** For `O=C(O)C[C@H]1CCc2c1[nH]c1ccc(OCc3ccc(C4CCCC4)c(C(F)(F)F)c3)cc21` [Compound 1, (R)-2-(7-(4-cyclopentyl-3-(trifluoromethyl)benzyloxy)-1,2,3,4-tetrahydrocyclopenta[b]indol-3-yl)acetic acid], which “endoscopic and symptomatic improvements versus placebo” value ([4]; Phase 2, ulcerative colitis patients, 2 mg QD for 12 weeks) is on record?
**A.** clinically meaningful and statistically significant

**Q.** And the “safety and tolerability in adult subjects” value ([4]; approximately 281 adult subjects, various doses, Phase 1 single doses up to 5 mg, repeated up to 4 mg QD)?
**A.** safe and well-tolerated

**Q.** And the “duration of sustained beneficial effects” value ([4]; open-label extension study)?
**A.** up to 46 weeks

— patent US20250152556A1, “ETRASIMOD FOR USE IN TREATING S1P1 RECEPTOR-ASSOCIATED DISORDERS IN COMBINATION WITH HORMONE TREATMENT” (Arena Pharmaceuticals, Inc., priority 2022, published 2025)
